Laboratory results: patent US20220204497A1, “NOVEL COMPOUND HAVING ANTICANCER ACTIVITY, AND METHOD FOR PRODUCING SAME” (MEDICINAL BIOCONVERGENCE RESEARCH CENTER, priority 2019, published 2022)

Columns and labels:
A549 cells = assay: Cell viability by MTT method in A549 cells; format: cell-based; parameters: concentration or dose not given beside the values; settings: 72 hours treatment
H460 cells [1] = assay: In vivo cancer growth inhibition in H460 xenograft animal model; parameters: species or system BALB/cAnCr female rats; settings: 50 mg/kg intraperitoneally once every 2 days, 16 days
Description: FIG. 4 is a result of testing the cancer cell growth inhibitory effect of compound No. 55 and compound No. 89 among the compounds of the Formula 1 according to the present invention and the tumor distribution of the drug in the H460 xenograft animal model. Taxol was used as a positive control.
H460 cells (2×10^7) were subcutaneously implanted in 7-week-old BALB/cAnCr female […], and then Compound No. 55 or Compound No. 89 (50 mg/kg) and Taxol (10 mg/kg) were administered intraperitoneally once every 2 days. The drug was administered for 16 days, and the size of the tumor and the weight of the animal were measured during administration. After 16 days, the animals were sacrificed and the size and weight of the removed tumors were measured.

AIMP2-DX2 = molecular target: T1, AIMP2-DX2 (Homo sapiens, UniProt Q13155); assay: DX2-nanoluciferase assay (DX2 expression change) in transfected A549 cells; settings: A549, 4 h, read-out: DX-Nanoluciferase activity (40 μM), 40 μM, 4 hours treatment, A549 cells transfected with nanoluciferase-DX2; inhibitory effect on AIMP2-DX2 expression
T1 sequence (Q13155 1-251 isoform Q13155-2): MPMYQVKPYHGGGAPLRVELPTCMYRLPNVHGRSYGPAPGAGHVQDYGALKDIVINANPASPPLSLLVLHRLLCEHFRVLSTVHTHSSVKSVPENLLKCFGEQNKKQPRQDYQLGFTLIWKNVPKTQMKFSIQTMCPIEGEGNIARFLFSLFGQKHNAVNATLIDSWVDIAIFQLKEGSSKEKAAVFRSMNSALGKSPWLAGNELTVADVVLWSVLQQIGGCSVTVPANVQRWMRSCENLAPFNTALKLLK
Description: After cloning DX2 into a plasmid expressing nanoluciferase, the plasmid was transfected into A549 cells. Transfected cells were seeded 1×10^4 per well in a 96-well plate and stabilized for 12 hours. […] Cell viability was measured by the MTT method after 72 hours of treatment with each concentration of the compound in A549 cells.

H460 cells [2] = assay: In vivo anti-cancer efficacy in mice transplanted with H460 cells; parameters: species or system mouse; settings: 50 mg/kg intraperitoneally once every two days, 15 days
Description: FIGS. 3a to 3d are the results of observing the tumor growth while administering compound No. 63 (50 mg/kg) once every two days intraperitoneally for a total of 15 days to a mouse transplanted with H460 cells. (FIG. 3a: macroscopic observation of each mouse and tumor after the end of administration, FIG. 3b: tumor growth curve over time, FIG. 3c: the weight of each tumor obtained at the end of administration, FIG. 3d: change in body weight of animals during administration period).
Next, the anti-cancer efficacy of compound No. 63 was evaluated in a mouse model transplanted with H460 cells.
Specifically, the compound No. 63 was intraperitoneally administered to mice transplanted with H460 cells at 50 mg/kg, once every two days for a total of 15 days.

Compound | Cell Viability (% inhibition) (A549) (A549 cells) [%] | body weight of the animal during treatment (side effect) (H460 cells [1]) | cancer growth inhibitory effect (H460 cells [1]; H460 xenograft) | inhibition at 40 µM (AIMP2-DX2) [%] | body weight of the animals during administration (H460 cells [2]) | tumor growth (H460 cells [2]; H460 transplanted mice)
COc1ccc(-c2csc(NC(=O)[C@H](CC(C)C)NS(=O)(=O)c3ccc(C)cc3)n2)cc1 [Compound 55, (S)—N-(4-(4-methoxyphenyl)thiazol-2-yl)-4-methyl-2-(4-methylphenylsulfonamido)pentanamide] | 89.25 ± 2.03 | no change in the body weight | about 50% | 70.3 ± 3.23 |  | 
COc1ccc(-c2csc(NC(=O)[C@H](Cc3c[nH]c4ccccc34)NS(=O)(=O)c3ccc(C)cc3)n2)cc1 [Compound 63, (S)-3-(1H-indol-3-yl)-N-(4-(4-methoxyphenyl)thiazol-2-yl)-2-(4-methylphenylsulfonamido)propanamide] | 86.53 ± 1.35 |  |  |  | no change in the body weight | significantly inhibited the growth of tumors
